Test results from ChEMBL document CHEMBL1201862, “PubChem BioAssay data set” (2004).
Activity calls are given as the source filed them.

What was measured:
[1] = Counterscreen for activators of the function of SWI/SNF related, matrix associated, actin dependent regulator of chromatin, subfamily a, member 2 (SMARCA2, BRM): Luminescence-based cell-based high throughput dose response assay to identify non-selective compounds using the VP16 reporter assay.; format: functional
[2] = molecular target: Glucose-6-phosphate 1-dehydrogenase (Homo sapiens, UniProt P11413); experiment: inhibition of Homo sapiens G6PD, dose series – biochemical, fluorescence, selectivity assay for P. falciparum G6PD inhibitor project, dose response (AID 504792); format: functional
[3] = molecular target: SWI/SNF-related matrix-associated actin-dependent regulator of chromatin subfamily A member 2 (Homo sapiens, UniProt P51531); experiment: Luminescence-based cell-based high throughput dose response assay to identify activators of the function of SWI/SNF related, matrix associated, actin dependent regulator of chromatin, subfamily a, member 2 (SMARCA2, BRM).; format: functional
[4] = non-specific 3'UTR reporter inhibition in Clone20-Shn3RL – cell-based, Renilla luciferase, cherry-picked, counter-screen for Shn3 inhibitor project, dose response (AID 624133); format: functional
Galanin receptor type 3 = molecular target: T1, Galanin receptor type 3 (Homo sapiens, UniProt O60755); experiment: Fluorescence-based cell-based primary high throughput dose response assay to identify antagonists of the Galanin Receptor 3 (GalR3).; format: functional
T1 sequence (O60755 whole entry): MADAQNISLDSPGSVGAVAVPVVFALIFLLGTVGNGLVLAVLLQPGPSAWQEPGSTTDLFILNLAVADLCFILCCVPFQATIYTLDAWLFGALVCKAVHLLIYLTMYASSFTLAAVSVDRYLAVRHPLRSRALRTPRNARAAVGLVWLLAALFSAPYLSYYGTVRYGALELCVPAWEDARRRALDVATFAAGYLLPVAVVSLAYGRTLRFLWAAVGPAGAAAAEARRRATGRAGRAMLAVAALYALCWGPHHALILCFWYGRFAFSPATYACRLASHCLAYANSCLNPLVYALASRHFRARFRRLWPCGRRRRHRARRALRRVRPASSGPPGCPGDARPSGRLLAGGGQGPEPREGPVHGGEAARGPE

[5] = molecular target: T2, COUP transcription factor 2 (Homo sapiens, UniProt P24468); experiment: Luminescence-based cell-based high throughput dose response assay to identify inhibitors of COUP-TFII (NR2F2).; format: functional;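 note: HEK293 cells transiently cotransfected with COUP-TFII expression vector and reporter; luciferase reporter luminescence driven by COUP-TFII from the pX2-168 reporter plasmid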
T2 sequence (P24468 whole entry): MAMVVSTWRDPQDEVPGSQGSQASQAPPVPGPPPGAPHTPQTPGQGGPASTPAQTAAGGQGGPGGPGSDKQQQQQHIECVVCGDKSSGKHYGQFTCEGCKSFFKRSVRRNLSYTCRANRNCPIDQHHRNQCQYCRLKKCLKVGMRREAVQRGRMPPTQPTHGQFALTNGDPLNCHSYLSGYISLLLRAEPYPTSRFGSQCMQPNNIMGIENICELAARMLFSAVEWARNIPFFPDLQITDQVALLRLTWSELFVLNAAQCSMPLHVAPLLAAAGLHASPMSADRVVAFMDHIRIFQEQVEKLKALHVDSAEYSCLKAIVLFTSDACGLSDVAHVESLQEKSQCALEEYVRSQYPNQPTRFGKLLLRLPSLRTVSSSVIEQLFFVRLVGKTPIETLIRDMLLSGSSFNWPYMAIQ

[6] = reduction of Shn3 3'UTR-driven luciferase in osteoblasts – cell-based, Clone20 osteoblasts, firefly luciferase, cherry-picked, dose response (AID 624132); format: functional;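 note: firefly luciferase luminescence from reporter carrying the Shn3 3'UTR in osteoblasts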
[7] = loss of viability in HepG2 cells – cell-based, CellTiter-Glo, cherry-picked, cytotoxicity control for Shn3 inhibitor project, dose response (AID 624134); format: functional
cells [8] = format: functional, cell-based; details: HEK-CNG
[9] = molecular target: ADP-ribosylation factor GTPase-activating protein 1 (Rattus norvegicus, UniProt Q62848); experiment: Fluorescence polarization-based biochemical high throughput dose response screening assay to identify inhibitors of ADP-ribosylation factor GTPase activating protein 1 (ARFGAP1).; format: functional
Beta-galactosidase = Beta-galactosidase (Escherichia coli, UniProt Q8VNN2); experiment: Dose response counterscreen for EBI2 assay utilizing the enzyme, b-galactosidase.; format: functional
Cytochrome P450 2C9 = Cytochrome P450 2C9 (Homo sapiens, UniProt P11712)
Cytochrome P450 2C19 = Cytochrome P450 2C19 (Homo sapiens, UniProt P33261); experiment: Cytochrome panel assay with activity outcomes. Panel member name: p450-cyp2c19 Compounds with AC50 equal or less than 10 uM are considered active; format: functional; details: read-out: AC50
cells [10] = format: functional, cell-based
[11] = molecular target: T3, Trace amine-associated receptor 1 (Homo sapiens, UniProt Q96RJ0); experiment: Counterscreen for agonists of the human trace amine associated receptor 1 (hTAAR1): Fluorescence-based cell-based high throughput dose response assay to identify hTAAR1 agonist that also desensitize TAAR1 receptor response.; format: functional
T3 sequence (Q96RJ0 whole entry): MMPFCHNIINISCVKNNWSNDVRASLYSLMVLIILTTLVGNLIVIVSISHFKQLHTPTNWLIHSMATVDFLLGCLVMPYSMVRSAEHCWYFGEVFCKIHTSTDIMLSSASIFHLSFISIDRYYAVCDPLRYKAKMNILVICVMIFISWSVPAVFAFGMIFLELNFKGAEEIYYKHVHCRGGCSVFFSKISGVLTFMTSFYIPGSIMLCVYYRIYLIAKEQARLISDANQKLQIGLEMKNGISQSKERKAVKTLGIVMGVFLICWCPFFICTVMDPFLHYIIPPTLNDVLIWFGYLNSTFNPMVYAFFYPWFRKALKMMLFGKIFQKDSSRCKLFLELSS

cells [12] = format: functional, cell-based; remark: listed apart in the source
[13] = molecular target: T3, Trace amine-associated receptor 1; experiment: Fluorescence-based cell-based high throughput dose response assay to identify agonists of the human trace amine associated receptor 1 (TAAR1).; format: functional
[14] = molecular target: Ras and Rab interactor 1/Tyrosine-protein kinase ABL1 (Homo sapiens, UniProt P00519+Q13671); format: functional;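 note: biochemical TR-FRET dose-response test measuring inhibition of binding between Rin1 and Abl proteins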
Protein Wnt-3a = Protein Wnt-3a (Mus musculus, UniProt P27467); experiment: antagonism of Wnt3a pathway luciferase reporter – Wnt-LIGHT cells, luminescence, selectivity assay for Gli-SUFU antagonist project, dose response (AID 651570); format: functional; details: read-out: IC50_Mean;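 note: Wnt-LIGHT reporter cells stimulated with conditioned medium from Wnt3a-producing cells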
[15] = HPDE-C7 pancreatic duct cell viability loss – fluorescence, HTS (AID 430); format: functional, cell-based; details: Homo sapiens
[16] = viability loss of HPDE-C7K cells – cell-based, fluorescence, HTS, primary screen (AID 431); format: functional; details: Homo sapiens

Chain of Beta-galactosidase (Q8VNN2 whole entry): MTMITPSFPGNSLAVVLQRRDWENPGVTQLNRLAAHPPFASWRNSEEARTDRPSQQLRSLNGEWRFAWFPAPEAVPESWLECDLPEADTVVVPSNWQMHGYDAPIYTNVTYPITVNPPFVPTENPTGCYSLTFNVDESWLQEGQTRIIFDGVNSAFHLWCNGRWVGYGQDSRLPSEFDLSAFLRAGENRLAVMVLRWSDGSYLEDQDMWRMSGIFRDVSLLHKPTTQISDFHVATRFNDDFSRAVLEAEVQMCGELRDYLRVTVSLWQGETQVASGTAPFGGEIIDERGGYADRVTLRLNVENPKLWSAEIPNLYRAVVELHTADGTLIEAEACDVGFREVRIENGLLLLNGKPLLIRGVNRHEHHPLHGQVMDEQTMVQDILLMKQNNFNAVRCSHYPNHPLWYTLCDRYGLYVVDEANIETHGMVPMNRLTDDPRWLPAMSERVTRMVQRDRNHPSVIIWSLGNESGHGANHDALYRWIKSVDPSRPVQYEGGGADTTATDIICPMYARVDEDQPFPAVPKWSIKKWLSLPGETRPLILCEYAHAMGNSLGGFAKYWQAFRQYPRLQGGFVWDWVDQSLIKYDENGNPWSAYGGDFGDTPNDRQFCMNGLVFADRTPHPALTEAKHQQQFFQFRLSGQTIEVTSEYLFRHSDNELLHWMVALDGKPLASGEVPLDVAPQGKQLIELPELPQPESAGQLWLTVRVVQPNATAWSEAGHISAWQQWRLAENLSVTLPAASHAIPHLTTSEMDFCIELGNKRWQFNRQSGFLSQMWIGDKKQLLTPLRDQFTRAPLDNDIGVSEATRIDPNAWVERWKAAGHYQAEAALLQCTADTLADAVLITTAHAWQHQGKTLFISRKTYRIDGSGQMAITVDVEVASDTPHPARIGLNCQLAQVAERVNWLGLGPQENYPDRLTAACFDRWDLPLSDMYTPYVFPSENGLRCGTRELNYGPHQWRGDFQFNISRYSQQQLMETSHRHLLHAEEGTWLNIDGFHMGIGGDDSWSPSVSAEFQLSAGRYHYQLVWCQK
Chain of Ras and Rab interactor 1/Tyrosine-protein kinase ABL1 (P00519 whole entry): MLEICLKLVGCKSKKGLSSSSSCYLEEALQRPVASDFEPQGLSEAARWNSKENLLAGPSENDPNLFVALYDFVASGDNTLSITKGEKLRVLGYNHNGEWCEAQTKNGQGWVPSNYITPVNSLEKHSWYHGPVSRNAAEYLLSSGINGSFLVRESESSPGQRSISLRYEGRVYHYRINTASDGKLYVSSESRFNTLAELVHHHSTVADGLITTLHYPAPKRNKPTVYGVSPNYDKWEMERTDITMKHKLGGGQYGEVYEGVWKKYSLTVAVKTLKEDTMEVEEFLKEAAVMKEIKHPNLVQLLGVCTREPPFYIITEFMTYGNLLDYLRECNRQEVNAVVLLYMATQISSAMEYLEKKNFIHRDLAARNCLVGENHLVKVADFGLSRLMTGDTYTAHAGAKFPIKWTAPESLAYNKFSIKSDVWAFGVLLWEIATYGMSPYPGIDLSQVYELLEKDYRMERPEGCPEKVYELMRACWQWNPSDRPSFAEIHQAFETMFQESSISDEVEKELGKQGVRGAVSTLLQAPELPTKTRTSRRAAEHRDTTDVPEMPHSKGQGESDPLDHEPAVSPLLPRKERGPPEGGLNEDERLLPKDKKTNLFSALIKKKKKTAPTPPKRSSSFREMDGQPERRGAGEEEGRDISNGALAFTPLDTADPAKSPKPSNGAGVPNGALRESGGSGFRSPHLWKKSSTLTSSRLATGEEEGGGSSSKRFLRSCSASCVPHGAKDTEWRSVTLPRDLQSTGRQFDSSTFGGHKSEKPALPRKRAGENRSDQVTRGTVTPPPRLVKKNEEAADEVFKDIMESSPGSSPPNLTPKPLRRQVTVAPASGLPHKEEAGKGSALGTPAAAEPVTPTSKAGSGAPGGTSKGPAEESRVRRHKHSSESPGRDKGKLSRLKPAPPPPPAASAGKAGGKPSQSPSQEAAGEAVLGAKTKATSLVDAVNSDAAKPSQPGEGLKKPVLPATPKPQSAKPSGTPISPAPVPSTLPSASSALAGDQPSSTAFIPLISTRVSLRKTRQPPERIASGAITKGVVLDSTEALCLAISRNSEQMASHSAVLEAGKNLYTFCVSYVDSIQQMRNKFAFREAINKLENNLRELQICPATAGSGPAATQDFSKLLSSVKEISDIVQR
Chain of Ras and Rab interactor 1/Tyrosine-protein kinase ABL1 (Q13671 whole entry): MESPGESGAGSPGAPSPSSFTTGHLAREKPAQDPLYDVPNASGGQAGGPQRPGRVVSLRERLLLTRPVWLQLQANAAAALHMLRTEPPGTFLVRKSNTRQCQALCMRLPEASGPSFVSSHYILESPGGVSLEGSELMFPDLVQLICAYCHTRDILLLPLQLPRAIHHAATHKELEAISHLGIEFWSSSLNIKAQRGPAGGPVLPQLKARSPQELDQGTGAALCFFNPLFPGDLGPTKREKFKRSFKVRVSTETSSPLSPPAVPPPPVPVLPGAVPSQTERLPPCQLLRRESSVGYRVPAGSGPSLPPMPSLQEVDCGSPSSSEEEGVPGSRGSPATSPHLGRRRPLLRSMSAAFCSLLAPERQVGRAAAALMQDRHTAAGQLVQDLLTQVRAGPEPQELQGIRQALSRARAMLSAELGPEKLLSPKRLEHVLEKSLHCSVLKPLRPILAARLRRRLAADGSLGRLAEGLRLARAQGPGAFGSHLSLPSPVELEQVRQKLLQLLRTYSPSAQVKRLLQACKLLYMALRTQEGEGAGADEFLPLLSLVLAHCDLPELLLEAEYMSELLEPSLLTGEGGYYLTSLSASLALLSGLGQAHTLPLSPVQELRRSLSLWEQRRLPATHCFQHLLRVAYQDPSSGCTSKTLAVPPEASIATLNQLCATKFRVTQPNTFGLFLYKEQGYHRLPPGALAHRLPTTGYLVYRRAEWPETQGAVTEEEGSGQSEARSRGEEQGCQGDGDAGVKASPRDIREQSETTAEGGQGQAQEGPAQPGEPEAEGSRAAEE
Chain of Protein Wnt-3a (P27467 whole entry): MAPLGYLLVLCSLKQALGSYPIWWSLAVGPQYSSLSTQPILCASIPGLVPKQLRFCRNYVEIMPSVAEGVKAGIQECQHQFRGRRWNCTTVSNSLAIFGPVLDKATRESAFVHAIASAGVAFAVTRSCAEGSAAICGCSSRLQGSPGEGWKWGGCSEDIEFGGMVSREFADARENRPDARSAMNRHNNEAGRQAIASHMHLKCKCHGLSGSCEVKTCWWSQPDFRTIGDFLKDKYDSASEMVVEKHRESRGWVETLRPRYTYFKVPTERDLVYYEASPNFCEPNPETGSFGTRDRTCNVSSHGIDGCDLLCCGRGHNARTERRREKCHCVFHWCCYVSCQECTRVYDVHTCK
Chain of SWI/SNF-related matrix-associated actin-dependent regulator of chromatin subfamily A member 2 (P51531 whole entry): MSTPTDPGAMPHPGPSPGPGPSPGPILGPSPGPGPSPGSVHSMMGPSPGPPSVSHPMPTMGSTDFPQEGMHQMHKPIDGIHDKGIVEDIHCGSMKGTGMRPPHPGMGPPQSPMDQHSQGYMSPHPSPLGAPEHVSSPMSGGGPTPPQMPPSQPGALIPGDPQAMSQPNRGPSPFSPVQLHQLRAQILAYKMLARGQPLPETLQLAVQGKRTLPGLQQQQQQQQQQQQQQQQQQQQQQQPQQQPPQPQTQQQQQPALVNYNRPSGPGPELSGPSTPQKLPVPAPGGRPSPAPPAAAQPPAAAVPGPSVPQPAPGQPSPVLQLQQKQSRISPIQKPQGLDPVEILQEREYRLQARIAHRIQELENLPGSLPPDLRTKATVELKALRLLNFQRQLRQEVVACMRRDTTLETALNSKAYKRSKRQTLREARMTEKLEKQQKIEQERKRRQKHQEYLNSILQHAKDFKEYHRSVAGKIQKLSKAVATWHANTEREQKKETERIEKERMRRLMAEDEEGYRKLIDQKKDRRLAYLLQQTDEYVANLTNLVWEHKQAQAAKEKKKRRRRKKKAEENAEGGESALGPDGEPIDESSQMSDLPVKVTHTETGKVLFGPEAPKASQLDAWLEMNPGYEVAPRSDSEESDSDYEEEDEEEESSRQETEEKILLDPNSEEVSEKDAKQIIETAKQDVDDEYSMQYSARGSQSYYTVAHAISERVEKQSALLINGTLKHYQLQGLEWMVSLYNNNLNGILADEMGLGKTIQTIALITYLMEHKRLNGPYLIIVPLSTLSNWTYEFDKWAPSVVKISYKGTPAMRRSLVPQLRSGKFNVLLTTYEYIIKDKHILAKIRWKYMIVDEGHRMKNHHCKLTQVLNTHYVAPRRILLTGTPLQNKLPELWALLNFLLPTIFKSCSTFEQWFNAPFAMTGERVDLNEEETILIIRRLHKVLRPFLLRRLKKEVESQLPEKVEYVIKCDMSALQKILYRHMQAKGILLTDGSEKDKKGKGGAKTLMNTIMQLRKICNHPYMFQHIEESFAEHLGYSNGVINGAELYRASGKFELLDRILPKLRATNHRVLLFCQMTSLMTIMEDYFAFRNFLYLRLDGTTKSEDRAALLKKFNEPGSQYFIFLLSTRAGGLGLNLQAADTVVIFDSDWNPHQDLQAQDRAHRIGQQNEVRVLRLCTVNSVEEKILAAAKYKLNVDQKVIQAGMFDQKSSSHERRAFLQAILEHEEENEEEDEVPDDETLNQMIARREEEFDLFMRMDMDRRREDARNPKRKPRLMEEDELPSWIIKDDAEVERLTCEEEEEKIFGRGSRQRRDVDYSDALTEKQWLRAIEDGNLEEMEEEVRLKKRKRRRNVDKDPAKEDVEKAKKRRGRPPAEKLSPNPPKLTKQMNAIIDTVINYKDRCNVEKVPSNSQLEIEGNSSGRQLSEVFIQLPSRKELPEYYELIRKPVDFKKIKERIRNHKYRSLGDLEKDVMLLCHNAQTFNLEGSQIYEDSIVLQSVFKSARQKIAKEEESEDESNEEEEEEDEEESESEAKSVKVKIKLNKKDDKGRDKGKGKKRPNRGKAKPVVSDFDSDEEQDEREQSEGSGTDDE

Cc1ccc(/C=C/C(=O)NC2CCCCCCC2)o1
EC50 [1]: > 91.1 µM (inactive)
IC50 [2]: > 80 µM (inactive)
EC50 [3]: > 91.1 µM (inactive)

CCCCCCn1c(NCC)nc2c1c(=O)n(C)c(=O)n2C
AC50 [4]: 9.18 µM (active)
IC50 (Galanin receptor type 3): > 1.11 µM (active)
IC50 [5]: 9.46 µM (active)
AC50 [6]: 0.834 µM (active)
AC50 [7]: 2.55 µM (active)
EC50 (cells [8]): > 29.9 µM (inactive)

COC(=O)c1ccc(Nc2nc(-c3ccncc3)nc3ccccc23)cc1
IC50 [9]: 98.4 µM (inactive)

O=C(COc1ccc2ccccc2c1)N1CCN(C(=O)c2cccnc2)CC1
IC50 (Beta-galactosidase): > 80 µM (inactive)
AC50 (Cytochrome P450 2C9): 31.6 µM (inconclusive)
AC50 (Cytochrome P450 2C19): 15.8 µM (inconclusive)

Oc1cnnc(Nc2ccccc2)n1
EC50 (cells [10]): > 29.9 µM (inactive)
IC50 [11]: > 29.9 µM (inactive)
IC50 (cells [12]): > 29.9 µM (inactive)
EC50 [13]: 4.6 µM (active)

Cc1ccccc1-c1nc(CS(=O)(=O)CC(=O)NCCc2ccccc2)c(C)o1
EC50 (cells [10]): > 29.9 µM (inactive)
IC50 [11]: 8.58 µM (active)
IC50 (cells [12]): > 29.9 µM (inactive)
EC50 [13]: 3.59 µM (active)

O=C(O)c1ccc(CSc2nnc(-c3cccnc3)n2-c2ccc(Br)cc2)cc1
IC50 [14]: 11.8 µM (inactive)

CN(C)S(=O)(=O)N1CCN(CC(O)COc2ccc3cc(Br)ccc3c2)CC1 (configuration not stated)
IC50 (Beta-galactosidase): > 80 µM (inactive)

CN(Cc1ccc(OCC(O)CN2CCCCC2)cc1)Cc1ccnc2ccccc12 (configuration not stated)
AC50 [4]: 1.37 µM (active)
AC50 [6]: 1.21 µM (active)
AC50 [7]: 4.07 µM (active)
IC50 (Protein Wnt-3a): 3.4 µM (active)

Cc1nnc(SCc2nc3ccccc3[nH]2)s1
EC50 [15]: > 20 µM (not active)
IC50 [14]: 15.2 µM (inactive)
EC50 [16]: > 20 µM (not active)

Cc1cc2c(ccc3c2no[n+]3[O-])nn1
IC50 (Galanin receptor type 3): > 29.9 µM (inactive)
EC50 (cells [8]): > 29.9 µM (inactive)

N#Cc1c(N)sc2c1CCN(CCc1ccccc1)C2
EC50 (cells [10]): > 29.9 µM (inactive)
IC50 [11]: 9.09 µM (active)
IC50 (cells [12]): > 29.9 µM (inactive)
EC50 [13]: 1.58 µM (active)

Cc1ccc(NC(=O)COc2ccccc2C(N)=O)cc1S(=O)(=O)N1CCCCCC1
IC50 (Protein Wnt-3a): 9.3 µM (active)
